Earlier results, collected in patent publication US20220241167A1, “PRODUCT FOR TREATING KERATINOUS FIBERS, CONTAINING SILANES OF SPECIFIC FORMULAE” (Henkel AG & Co. KGaA, priority 2019, published 2022).

Conditions: for solubility in water: 25° C.

solubility in water (in words) (at 25° C.)	SMILES	solubility in water
	O=S(=O)([O-])c1ccc(N=Nc2c(O)ccc3ccccc23)cc1.[Na+] [Acid Orange 7, sodium salt of 4-[(2-hydroxy-1-naphthyl)azo]benzene sulphonate]	more than 7 g/L
	Nc1cc(S(=O)(=O)[O-])cc2cc(S(=O)(=O)[O-])c(N=Nc3ccccc3)c(O)c12.[Na+].[Na+] [Acid Red 33, diantrium salt of 5-amino-4-hydroxy-3-(phenylazo)-naphthalene-2,7-disulphonate]	about 2.5 g/L
highly soluble in water	O=C([O-])C1=NN(c2ccc(S(=O)(=O)[O-])cc2)C(=O)C1N=Nc1ccc(S(=O)(=O)[O-])cc1.[Na+].[Na+].[Na+] (stereo not drawn) [Acid Yellow 23, trisodium salt of 4,5-dihydro-5-oxo-1-(4-sulfophenyl)-4-((4-sulfophenyl)azo)-1H-pyrazole-3-carboxylic acid]	
